{
  "source": "ChEMBL document CHEMBL1126639",
  "about": "“Centrally acting serotonergic and dopaminergic agents. 2. Synthesis and structure-activity relationships of 2,3,3a,4,9,9a-hexahydro-1H-benz[f]indole derivatives” (J Med Chem, 1993)",
  "type_in_all_cases": "functional",
  "key": {"Mus musculus [1]": {"test_system": "Mus musculus", "assay": "Ability to stimulate dopaminergic systems by effect on locomotor activity in reserpinized mice when a dose of 0.3 micro mol/kg is administered intraperitoneally; also: unit not given here"}, "Mus musculus [2]": {"test_system": "Mus musculus", "assay": "Antagonism of apomorphine in reserpinized mice when a dose of 3.3 micro mol/kg is administered intraperitoneally; also: unit not given here"}, "Mus musculus [3]": {"test_system": "Mus musculus", "assay": "Antagonism of apomorphine for 10-20 minutes in reserpinized mice when a dose of 0.3 micro mol/kg is administered intraperitoneally"}, "Mus musculus [4]": {"test_system": "Mus musculus", "assay": "Ability to stimulate dopaminergic systems by effect on locomotor activity in reserpinized mice when a dose of 3.3 micro mol/kg is administered intraperitoneally; also: unit not given here"}, "Mus musculus [5]": {"test_system": "Mus musculus", "assay": "Antagonism of apomorphine for 0-10 minutes in reserpinized mice when a dose of 33 micro mol/kg is administered intraperitoneally"}, "Mus musculus [6]": {"test_system": "Mus musculus", "assay": "Antagonism of apomorphine for 10-20 minutes in reserpinized mice when a dose of 33 micro mol/kg is administered intraperitoneally; also: unit not given here"}, "Mus musculus [7]": {"test_system": "Mus musculus", "assay": "Ability to stimulate dopaminergic systems by effect on locomotor activity in reserpinized mice when a dose of 33 micro mol/kg is administered intraperitoneally; also: unit not given here"}, "Mus musculus [8]": {"test_system": "Mus musculus", "assay": "Antagonism of apomorphine for 0-10 minutes in reserpinized mice when a dose of 3.3 micro mol/kg is administered intraperitoneally"}, "Mus musculus [9]": {"test_system": "Mus musculus", "assay": "Antagonism of apomorphine for 10-20 minutes in reserpinized mice when a dose of 3.3 micro mol/kg is administered intraperitoneally"}, "Mus musculus [10]": {"test_system": "Mus musculus", "assay": "Antagonism of apomorphine in reserpinized mice when a dose of 33 micro mol/kg is administered intraperitoneally; also: unit not given here"}, "Mus musculus [11]": {"test_system": "Mus musculus", "assay": "Antagonism of apomorphine for 0-10 minutes in reserpinized mice when a dose of 0.3 micro mol/kg is administered intraperitoneally"}, "Mus musculus [12]": {"test_system": "Mus musculus", "assay": "Antagonism of apomorphine in reserpinized mice when a dose of 0.3 micro mol/kg is administered intraperitoneally; also: unit not given here"}},
  "data": [
    {"smiles": "CCCN1CCCC(c2cccc(O)c2)C1", "note": "(single isomer, unassigned; (-))", "values": [
      {"measurement": "Locomotor activity", "setting": "Mus musculus [1]", "value": 31},
      {"measurement": "Locomotor activity", "setting": "Mus musculus [2]", "value": 106},
      {"measurement": "Locomotor activity", "setting": "Mus musculus [3]", "value": 106},
      {"measurement": "Locomotor activity", "setting": "Mus musculus [4]", "value": 8},
      {"measurement": "Locomotor activity", "setting": "Mus musculus [5]", "value": 59},
      {"measurement": "Locomotor activity", "setting": "Mus musculus [6]", "value": 58},
      {"measurement": "Locomotor activity", "setting": "Mus musculus [7]", "value": 13},
      {"measurement": "Locomotor activity", "setting": "Mus musculus [8]", "value": 91},
      {"measurement": "Locomotor activity", "setting": "Mus musculus [9]", "value": 83},
      {"measurement": "Locomotor activity", "setting": "Mus musculus [10]", "value": 41},
      {"measurement": "Locomotor activity", "setting": "Mus musculus [11]", "value": 127},
      {"measurement": "Locomotor activity", "setting": "Mus musculus [12]", "value": 118}
    ]}
  ]
}
